{"source": "patent US12616672B2", "about": "“Methods for assessing risk of cardiovascular disease and methods and compounds for use in treating or preventing cardiovascular disease” (Queen Mary University of London, priority 2017, dated 2026)", "key": {"[1]": {"system": "healthy volunteer peripheral blood neutrophils, monocytes and platelets", "assay": "Healthy volunteer whole blood incubated with RvDn-3 DPA then PAF, flow cytometry of activation markers", "format": "cell-based, human", "settings": "0.1, 1, 10 nM, 15 min then PAF 30 min", "experimental": "Blood was collected from healthy volunteers and incubated with RvD2n-3 DPA, RvD5n-3 DPA (0.1 nM, 1 nM or 10 nM) or vehicle (PBS) for 15 min (37° C.) then with PAF (100 ng/ml; 30 min; 37° C.). Cell activation and leukocyte-platelet aggregates were assessed using flow cytometry. (A,B) Representative histograms depicting neutrophil (A) CD11b and (B) CD62P expression. (C,D) Cumulative neutrophil ([…]) CD11b and (D) CD62P expression. (E,F) Monocyte (E) CD11b and (F) CD62P expression. Results are mean of n=5 per time point and expressed as percentage change from PAF incubated cells. *p<0.05 compared to PAF using one-sample t test, followed by Sidak correction of p values.\nBlood was collected from healthy volunteers and incubated with RvD2n-3 DPA, RvD5n-3 DPA (0.1 nM, 1 nM or 10 nM) or vehicle (PBS) for 15 min (37° C.) then with PAF (100 ng/ml; 30 min; 37° C.). Cell activation and leukocyte-platelet aggregates were assessed using flow cytometry. (A,B) Images depicting platelet monocyte (A) and (B) platelet-neutrophil aggregates. Results are representative of n=3 distinct experiments. (C,D) Cumulative neutrophil (C) CD11b and (D) CD62P expression. (E,F) Monocyte (E) CD11b and (F) CD62P expression. Results are mean of n=5 per condition and expressed as percentage change from PAF incubated cells. *p<0.05 compared to PAF using Wilcoxon Signed Rank Test. (G) Platelet rich plasma was incubated with vehicle (PBS) or RvD5n-3 DPA 0.1-10 nM (15 min; 37° C.) and PAF (100 nM; 30 min; 37° C.). Adhesion molecule expression evaluated using flow cytometry. Results are mean±s.e.m. n=5 healthy volunteers. * p, 0.05 compared to Vehicle group using Friedman's test followed by Dunn's multiple comparisons test.\n(§1) After stimulation, samples were washed twice with PBS for 12 min at 800×g. Samples were stained for flow cytometry as described below.\n(§2) Whole blood was incubated with lineage-specific markers for 45 min (4° C., in DPBS containing 0.02% BSA). The following anti-human antibodies were used: VioBlue-anti-CD41, PE-Cy5-anti-CD62P, Brilliant Violet 711-anti-CD11b, APC-Cy7-anti-CD16, Alexa Fluor 647-anti-CD14. After staining, red blood cells were lysed using Whole Blood Lysing Reagent Kit, according to the manufacturer's instructions. Data was collected using a flow cytometer and analysis was conducted using appropriate software."}, "[2]": {"system": "peripheral blood leukocytes and platelets from CVD patients", "assay": "CVD patient whole blood incubated with RvD2n-3 DPA or RvD5n-3 DPA then PAF, flow cytometry", "format": "cell-based, human"}, "[3]": {"system": "Apo E^−/− mice", "assay": "Apo E−/− mice on western diet given RvD5n-3 DPA: blood leukocyte and platelet activation by flow cytometry", "format": "in vivo", "settings": "100 ng/mouse i.v., alternate days, 2 weeks; vs vehicle", "experimental": "Mice (male and female) were fed a western diet for 6 weeks from 4 weeks of age and kept of a 12 h light dark cycle. At 8 weeks of age, mice were given RvD5n-3 DPA (100 ng/mouse; i.v.) or vehicle on alternate days for a 2-week period. Mice were culled, aortic arches were collected and stained using oil-red O as in Khambata R S et al. Anti-inflammatory actions of inorganic nitrate stabilize the atherosclerotic plaque. Proc Natt Acad Sci USA. 2017; 114(4):E550-E559, the contents of which are incorporated herein by reference. Staining intensity was determined using image processing software and expressed as relative units per mm^2. The descending aorta was collected, placed in ice-cold methanol and lipid mediators identified and quantified as described above.\nIn separate experiments blood was collected from Apo E^−/− mice using heparin-lined syringes via cardiac puncture. Cells were incubated with Fc-blocking IgG and anti-mouse CD11b-PE-Texas Red, CD62P-Brilliant Violet650™, CD115-Brilliant Violet 711™, and CD41-Brilliant Violet 510™ (Biolegend). for 45 minutes on ice. Red blood cells were lysed and fixed using Whole Blood Lysing Reagent Kit. Staining was then evaluated using a flow cytometer and analysis was conducted using appropriate software."}, "[4]": {"system": "peripheral blood leukocytes and platelets from CVD patients", "assay": "CVD patient whole blood incubated with RvD2n-3 DPA or RvD5n-3 DPA then PAF, flow cytometry", "format": "cell-based, human", "settings": "15 min then PAF 30 min", "experimental": "Whole blood was incubated with RvD2n-3 DPA or RvD5n-3 DPA (0.1 nM, 1 nM or 10 nM) or vehicle (PBS containing 0.01% EtOH) for 15 min then with PAF (100 ng/ml) for 30 min (37° C.). Expression of CD62P on (A) neutrophils (B) monocytes and CD11b on (C) neutrophils and (D) monocytes was investigated using flow cytometry and fluorescently labelled antibodies. Results are mean±s.em. and expressed as percentage of PAF incubated cells. n=9 patients per interval. * p<0.05 vs Veh group using one-sample t test, followed by Sidak correction of p values.\nWhole blood was incubated with RvD2n-3 DPA or RvD5n-3 DPA (0.1 nM, 1 nM or 10 nM) or vehicle (PBS containing 0.01% EtOH) for 15 min then with PAF (100 ng/ml) for 30 min (37° C.). Expression of CD62P on (A) neutrophils (B) monocytes and CD11b on (C) neutrophils and (D) monocytes was investigated using flow cytometry and fluorescently labeled antibodies. Results are mean±s.em. and expressed as percentage of PAF incubated cells. n=9 patients per group. * p<0.05 vs PAF group using Wilcoxon Signed Rank Test.\nas §1, §2"}}}
{"smiles": "CC/C=C\\C[C@H](O)/C=C/C=C\\C/C=C\\C=C\\[C@@H](O)CCCCCC(=O)O", "note": "[RvD5n-3 DPA, 7,17-trihydroxy-8E,10,13,15E,19Z-docosapentaenoic acid]", "values": [{"measurement": "leukocyte-platelet aggregates", "setting": "[1]", "value": "dose-dependent decreases"}, {"measurement": "monocyte expression of CD11b", "setting": "[1]; vs PAF alone", "value": "dose-dependent decreases"}, {"measurement": "neutrophil CD11b expression", "setting": "[1]; vs PAF alone", "value": "dose-dependent decreases"}, {"measurement": "expression of CD62P on peripheral blood platelets", "setting": "[2]", "value": "dose-dependently regulated"}, {"measurement": "expression of CD63 on peripheral blood platelets", "setting": "[2]", "value": "dose-dependently regulated"}, {"measurement": "circulating platelet-monocyte aggregates (CD41 and CD62P expression on CD115 positive cells)", "setting": "[3]", "value": "reduced"}, {"measurement": "monocyte activation, CD11b expression", "setting": "[3]", "value": "decrease"}, {"measurement": "platelet-neutrophil aggregates and neutrophil activation", "setting": "[3]", "value": "significant reduction"}, {"measurement": "reduction in neutrophil CD11b expression", "setting": "[3]", "value": "> 60", "unit": "%"}, {"measurement": "expression of CD11b on monocytes", "setting": "[4]", "value": "decreased"}, {"measurement": "expression of CD11b on neutrophils", "setting": "[4]", "value": "decreased"}, {"measurement": "platelet-monocyte aggregates measured as CD62P and CD41 expression", "setting": "[4]", "value": "decreases"}, {"measurement": "platelet-neutrophil aggregates measured as CD62P and CD41 expression", "setting": "[4]", "value": "decreases"}]}
